# Test results reported in PubChem BioAssay (NCI).
#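 All cell lines were grown in 96-well plates and treated with compound for 48 hours. GI50 = concentration required for 50% inhibition of growth. The concentration for full growth arrest is given as TGI.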
# What was measured:
# Assay in all cases: inhibition of tumour cell growth, NCI panel, 48 h
# HCT-116 colon = system: HCT-116 colon
# SK-MEL-2 melanoma = system: SK-MEL-2 melanoma
# SK-MEL-5 melanoma = system: SK-MEL-5 melanoma
# SW-620 colon = system: SW-620 colon
# U251 CNS = system: U251 CNS
# KM12 colon = system: KM12 colon
# SN12C renal = system: SN12C renal
# PC-3 prostate = system: PC-3 prostate
# M14 melanoma = system: M14 melanoma
# SNB-19 CNS = system: SNB-19 CNS
# T-47D breast = system: T-47D breast
# ACHN renal = system: ACHN renal
# MDA-MB-231 breast = system: MDA-MB-231 breast
# UACC-257 melanoma = system: UACC-257 melanoma
# LOX IMVI melanoma = system: LOX IMVI melanoma
# NCI-H460 lung = system: NCI-H460 lung
# HL-60(TB) leukemia = system: HL-60(TB) leukemia
# HT29 colon = system: HT29 colon
# MALME-3M melanoma = system: MALME-3M melanoma
# BT-549 breast = system: BT-549 breast
# MOLT-4 leukemia = system: MOLT-4 leukemia
# UACC-62 melanoma = system: UACC-62 melanoma
# 786-0 renal = system: 786-0 renal
# HS 578T breast = system: HS 578T breast
# CAKI-1 renal = system: CAKI-1 renal
# K-562 leukemia = system: K-562 leukemia
# TK-10 renal = system: TK-10 renal
# NCI-H226 lung = system: NCI-H226 lung
# EKVX NSCLC = system: EKVX NSCLC
# NCI/ADR-RES ovarian = system: NCI/ADR-RES ovarian
# DU-145 prostate = system: DU-145 prostate
# HCT-15 colon = system: HCT-15 colon
# A549 NSCLC = system: A549 NSCLC
# RPMI-8226 leukemia = system: RPMI-8226 leukemia
# OVCAR-5 ovarian = system: OVCAR-5 ovarian
# NCI-H23 lung = system: NCI-H23 lung
# A498 renal = system: A498 renal
# SF-539 CNS = system: SF-539 CNS
# COLO 205 colon = system: COLO 205 colon
# NCI-H522 lung = system: NCI-H522 lung
# SK-MEL-28 melanoma = system: SK-MEL-28 melanoma
# OVCAR-4 ovarian = system: OVCAR-4 ovarian
# HOP-62 NSCLC = system: HOP-62 NSCLC
# SK-OV-3 ovarian = system: SK-OV-3 ovarian
# IGROV1 ovarian = system: IGROV1 ovarian
# HOP-92 NSCLC = system: HOP-92 NSCLC
# SNB-75 CNS = system: SNB-75 CNS
# OVCAR-3 ovarian = system: OVCAR-3 ovarian
# MDA-MB-435 = system: MDA-MB-435
# SF-295 CNS = system: SF-295 CNS
# CCRF-CEM leukemia = system: CCRF-CEM leukemia
# OVCAR-8 ovarian = system: OVCAR-8 ovarian
# RXF 393 renal = system: RXF 393 renal
# SR leukemia = system: SR leukemia
# MCF7 breast = system: MCF7 breast
# UO-31 renal = system: UO-31 renal
# SF-268 CNS = system: SF-268 CNS
smiles,measurement,setting,value
O=C1/C(=C\c2ccc(Cl)cc2)CCOc2c1ccc1ccccc21,GI50,HCT-116 colon,35 µM
same,TGI,HCT-116 colon,> 100 µM
same,GI50,SK-MEL-2 melanoma,87.5 µM
same,TGI,SK-MEL-2 melanoma,> 100 µM
same,GI50,SK-MEL-5 melanoma,20.6 µM
same,TGI,SK-MEL-5 melanoma,45.8 µM
same,GI50,SW-620 colon,38.5 µM
same,TGI,SW-620 colon,> 100 µM
same,GI50,U251 CNS,20.3 µM
same,TGI,U251 CNS,58.6 µM
same,GI50,KM12 colon,31.8 µM
same,TGI,KM12 colon,> 100 µM
same,GI50,SN12C renal,18.5 µM
same,TGI,SN12C renal,49.6 µM
same,GI50,PC-3 prostate,43.5 µM
same,TGI,PC-3 prostate,> 100 µM
same,GI50,M14 melanoma,36.3 µM
same,TGI,M14 melanoma,> 100 µM
same,GI50,SNB-19 CNS,23.9 µM
same,TGI,SNB-19 CNS,72.3 µM
same,GI50,T-47D breast,19 µM
same,TGI,T-47D breast,42.2 µM
same,GI50,ACHN renal,20.4 µM
same,TGI,ACHN renal,42.9 µM
same,GI50,MDA-MB-231 breast,18.6 µM
same,TGI,MDA-MB-231 breast,57 µM
same,GI50,UACC-257 melanoma,29.8 µM
same,TGI,UACC-257 melanoma,83.3 µM
same,GI50,LOX IMVI melanoma,18.6 µM
same,TGI,LOX IMVI melanoma,42.3 µM
same,GI50,NCI-H460 lung,21.4 µM
same,TGI,NCI-H460 lung,76.4 µM
same,GI50,HL-60(TB) leukemia,46.4 µM
same,TGI,HL-60(TB) leukemia,> 100 µM
same,GI50,HT29 colon,22.6 µM
same,TGI,HT29 colon,72 µM
same,GI50,MALME-3M melanoma,25.9 µM
same,TGI,MALME-3M melanoma,57.9 µM
same,GI50,BT-549 breast,18.8 µM
same,TGI,BT-549 breast,47 µM
same,GI50,MOLT-4 leukemia,11.7 µM
same,TGI,MOLT-4 leukemia,> 100 µM
same,GI50,UACC-62 melanoma,18.7 µM
same,TGI,UACC-62 melanoma,47 µM
same,GI50,786-0 renal,24 µM
same,TGI,786-0 renal,55.7 µM
same,GI50,HS 578T breast,46.5 µM
same,TGI,HS 578T breast,> 100 µM
same,GI50,CAKI-1 renal,31.7 µM
same,TGI,CAKI-1 renal,66 µM
same,GI50,K-562 leukemia,22.5 µM
same,TGI,K-562 leukemia,> 100 µM
same,GI50,TK-10 renal,27.6 µM
same,TGI,TK-10 renal,72.3 µM
same,GI50,NCI-H226 lung,11.2 µM
same,TGI,NCI-H226 lung,27.1 µM
same,GI50,EKVX NSCLC,16.7 µM
same,TGI,EKVX NSCLC,47.6 µM
same,GI50,NCI/ADR-RES ovarian,19.6 µM
same,TGI,NCI/ADR-RES ovarian,62.8 µM
same,GI50,DU-145 prostate,19.7 µM
same,TGI,DU-145 prostate,61.7 µM
same,GI50,HCT-15 colon,14.9 µM
same,TGI,HCT-15 colon,62.4 µM
same,GI50,A549 NSCLC,42.8 µM
same,TGI,A549 NSCLC,> 100 µM
same,GI50,RPMI-8226 leukemia,14 µM
same,TGI,RPMI-8226 leukemia,55.5 µM
same,GI50,OVCAR-5 ovarian,26.1 µM
same,TGI,OVCAR-5 ovarian,78.8 µM
same,GI50,NCI-H23 lung,21.6 µM
same,TGI,NCI-H23 lung,56.7 µM
same,GI50,A498 renal,36.4 µM
same,TGI,A498 renal,61.8 µM
same,GI50,SF-539 CNS,12.2 µM
same,TGI,SF-539 CNS,29.9 µM
same,GI50,COLO 205 colon,22 µM
same,TGI,COLO 205 colon,50.1 µM
same,GI50,NCI-H522 lung,30.1 µM
same,TGI,NCI-H522 lung,> 100 µM
same,GI50,SK-MEL-28 melanoma,19 µM
same,TGI,SK-MEL-28 melanoma,38.2 µM
same,GI50,OVCAR-4 ovarian,36.7 µM
same,TGI,OVCAR-4 ovarian,> 100 µM
same,GI50,HOP-62 NSCLC,25.8 µM
same,TGI,HOP-62 NSCLC,63.6 µM
same,GI50,SK-OV-3 ovarian,42.6 µM
same,TGI,SK-OV-3 ovarian,> 100 µM
same,GI50,IGROV1 ovarian,55.3 µM
same,TGI,IGROV1 ovarian,> 100 µM
same,GI50,HOP-92 NSCLC,17.8 µM
same,TGI,HOP-92 NSCLC,63.4 µM
same,GI50,SNB-75 CNS,34.6 µM
same,TGI,SNB-75 CNS,> 100 µM
same,GI50,OVCAR-3 ovarian,39.4 µM
same,TGI,OVCAR-3 ovarian,87.6 µM
same,GI50,MDA-MB-435,23.2 µM
same,TGI,MDA-MB-435,> 100 µM
same,GI50,SF-295 CNS,33.5 µM
same,TGI,SF-295 CNS,> 100 µM
same,GI50,CCRF-CEM leukemia,28.8 µM
same,TGI,CCRF-CEM leukemia,> 100 µM
same,GI50,OVCAR-8 ovarian,28.1 µM
same,TGI,OVCAR-8 ovarian,> 100 µM
same,GI50,RXF 393 renal,22.4 µM
same,TGI,RXF 393 renal,63.6 µM
same,GI50,SR leukemia,11.9 µM
same,TGI,SR leukemia,> 100 µM
same,GI50,MCF7 breast,19.4 µM
same,TGI,MCF7 breast,> 100 µM
same,GI50,UO-31 renal,35.4 µM
same,TGI,UO-31 renal,> 100 µM
same,GI50,SF-268 CNS,24.2 µM
same,TGI,SF-268 CNS,83.9 µM
